The assay deals with T1, human type 1 glycine transporter (GlyT1) (Homo sapiens, UniProt P48067).
T1 construct: T98G cells (glioma cells) expressing human type 1 glycine transporter (GlyT1) were used
T1 sequence (P48067 1-706): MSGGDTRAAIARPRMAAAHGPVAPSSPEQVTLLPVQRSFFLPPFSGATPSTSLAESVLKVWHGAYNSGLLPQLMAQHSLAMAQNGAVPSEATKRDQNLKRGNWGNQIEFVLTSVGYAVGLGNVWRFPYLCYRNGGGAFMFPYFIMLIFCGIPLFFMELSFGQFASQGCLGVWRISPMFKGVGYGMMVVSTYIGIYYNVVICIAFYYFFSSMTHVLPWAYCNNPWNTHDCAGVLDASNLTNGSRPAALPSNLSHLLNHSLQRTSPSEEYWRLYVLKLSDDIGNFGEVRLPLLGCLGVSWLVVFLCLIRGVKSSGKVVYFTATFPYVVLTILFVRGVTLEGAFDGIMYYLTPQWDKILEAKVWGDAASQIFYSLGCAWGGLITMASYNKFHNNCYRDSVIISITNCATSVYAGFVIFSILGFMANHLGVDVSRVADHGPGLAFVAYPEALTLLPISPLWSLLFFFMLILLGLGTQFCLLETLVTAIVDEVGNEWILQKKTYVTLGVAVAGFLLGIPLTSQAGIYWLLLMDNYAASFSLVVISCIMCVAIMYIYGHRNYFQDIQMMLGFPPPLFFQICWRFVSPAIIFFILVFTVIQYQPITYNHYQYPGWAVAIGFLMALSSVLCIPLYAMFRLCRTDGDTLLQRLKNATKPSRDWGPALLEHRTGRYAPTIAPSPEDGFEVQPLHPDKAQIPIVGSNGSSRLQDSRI
Put plainly: Glycine uptake inhibition experiment ([3H]glycine uptake). The assay is classed as cell-based. The following applies: GlyT1. In short, it runs like this:
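T98G glioma cells expressing human GlyT1 were pretreated 10 min with compound in HEPES buffer pH 7.4 (0.2% BSA), then incubated with compound plus 250 nM final [3H]glycine for 15 min at room temperature. Intracellular radioactivity was counted after NaOH lysis; 10 μM ALX5407 defined non-specific uptake. IC50 came from 10^−9–10^−5 M curves.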

Structures are written as SMILES.

Usually IC50 stands for the concentration that gives 50% inhibition. `CCn1cc(-c2cccc(C(NC(=O)c3ccnc(C(F)(F)F)c3Cl)C3(O)CCC(F)(F)CC3)c2)cn1` (stereo not shown) [Compound 157, 3-chloro-N-[(4,4-difluoro-1-hydroxycyclohexyl)[3-(1-ethyl-1H-pyrazol-4-yl)phenyl]methyl]-2-(trifluoromethyl)pyridine-4-carboxamide] registered an IC50 of 160 nM.

`O=C(NC(c1ccccc1)[C@]1(O)CC[C@@H](F)CC1)c1nccc(C(F)(F)F)c1Cl` (stereo partly drawn) [Compound 158, 3-chloro-N-[(cis-4-fluoro-1-hydroxycyclohexyl)(phenyl)methyl]-4-(trifluoromethyl)pyridine-2-carboxamide]: the midpoint of inhibition, the IC50, lay at 350 nM.

As to `O=C(NC(c1cccc(-c2cnccn2)c1)C1(O)CCC(F)(F)CC1)c1nccc(C(F)(F)F)c1Cl` (stereo not shown) [Compound 159, 3-chloro-N-{(4,4-difluoro-1-hydroxycyclohexyl)[3-(pyrazin-2-yl)phenyl]methyl}-4-(trifluoromethyl)pyridine-2-carboxamide], the IC50 came to 320 nM.

`O=C(NC(c1cccc(-c2ncccn2)c1)C1(O)CCC(F)(F)CC1)c1nccc(C(F)(F)F)c1Cl` (stereo not shown) [Compound 160, 3-chloro-N-{(4,4-difluoro-1-hydroxycyclohexyl)[3-(pyrimidin-2-yl)phenyl]methyl}-4-(trifluoromethyl)pyridine-2-carboxamide] yielded an IC50 of 880 nM.

In turn, `O=C(N[C@H](c1cccc(Cl)c1)[C@]1(O)CC[C@@H](F)CC1)c1nccc(C(F)(F)F)c1Cl` [Compound 161, 3-chloro-N-[(R)-(3-chlorophenyl)(cis-4-fluoro-1-hydroxycyclohexyl)methyl]-4-(trifluoromethyl)pyridine-2-carboxamide] had an IC50 of 6700 nM.

Take `O=C(N[C@@H](c1cccc(Cl)c1)[C@]1(O)CC[C@@H](F)CC1)c1nccc(C(F)(F)F)c1Cl` [Compound 162, 3-chloro-N-[(S)-(3-chlorophenyl)(cis-4-fluoro-1-hydroxycyclohexyl)methyl]-4-(trifluoromethyl)pyridine-2-carboxamide]: the IC50 is 65 nM.

`O=C(NC(c1cccc(Cl)c1)[C@]1(O)CC[C@@H](F)CC1)c1ccnc(C(F)(F)F)c1Cl` (stereo partly drawn) [Compound 163, 3-chloro-N-[(3-chlorophenyl)(cis-4-fluoro-1-hydoxycyclohexyl)methyl]-2-(trifluoromethyl)pyridine-4-carboxamide] returned an IC50 of 390 nM.

`O=C(NC(c1ccc(F)c(F)c1F)C1(O)CCC(F)(F)CC1)c1nccc(C(F)(F)F)c1Cl` (stereo not shown) [Compound 170, 3-chloro-N-[(4,4-difluoro-1-hydroxycyclohexyl)(2,3,4-trifluorophenyl)methyl]-4-(trifluoromethyl)pyridine-2-carboxamide] returned an IC50 of 630 nM.

Consider `O=C(NC(c1ccc(F)c(F)c1F)C1(O)CCC(F)(F)CC1)c1ccnc(C(F)(F)F)c1Cl` (stereo not shown) [Compound 171, 3-chloro-N-[(4,4-difluoro-1-hydroxycyclohexyl)(2,3,4-trifluorophenyl)methyl]-2-(trifluoromethyl)pyridine-4-carboxamide], for which the IC50 came to 1100 nM.

`CCn1cc(-c2cccc(C(NC(=O)c3ccnc(C(F)(F)F)c3)C3(O)CCC(F)(F)CC3)c2)cn1` (stereo not shown) [Compound 172, N-{(4,4-difluoro-1-hydroxycyclohexyl)[3-(1-ethyl-1H-pyrazol-4-yl)phenyl]methyl}-2-(trifluoromethyl)pyridine-4-carboxamide] returned an IC50 of 5000 nM.

As for `CCn1cc(-c2cccc(C(NC(=O)c3ccnc(Cl)c3Cl)C3(O)CCC(F)(F)CC3)c2)cn1` (stereo not shown) [Compound 173, 2,3-dichloro-N-{(4,4-difluoro-1-hydroxycyclohexyl)[3-(1-ethyl-1H-pyrazol-4-yl)phenyl]methyl}pyridine-4-carboxamide], the IC50 worked out at 1000 nM.

`CCn1cc(-c2cccc(C(NC(=O)c3c(Cl)cccc3Cl)C3(O)CCC(F)(F)CC3)c2)cn1` (stereo not shown) [Compound 174, 2,6-dichloro-N-{(4,4-difluoro-1-hydroxycyclohexyl)[3-(1-ethyl-1H-pyrazol-4-yl)phenyl]methyl}benzamide] had an IC50 of 1100 nM.

In turn, `CCn1cc(-c2cccc(C(NC(=O)c3ccc(Cl)c(Cl)c3)C3(O)CCC(F)(F)CC3)c2)cn1` (stereo not shown) [Compound 175, 3,4-dichloro-N-{(4,4-difluoro-1-hydroxycyclohexyl)[3-(1-ethyl-1H-pyrazol-4-yl)phenyl]methyl}benzamide] gave a 50% inhibitory concentration (IC50) of 4000 nM.

Compound `CCn1cc(-c2cccc(C(NC(=O)c3c(Cl)cc(Cl)cc3Cl)C3(O)CCC(F)(F)CC3)c2)cn1` (stereo not shown) [Compound 176, 2,4,6-trichloro-N-{(4,4-difluoro-1-hydroxycyclohexyl)[3-(1-ethyl-1H-pyrazol-4-yl)phenyl]methyl}benzamide] displayed an IC50 of 1000 nM.

`CCn1cc(-c2cccc(C(NC(=O)c3cc(C(F)(F)F)ccc3C)C3(O)CCC(F)(F)CC3)c2)cn1` (stereo not shown) [Compound 179, N-{(4,4-difluoro-1-hydroxycyclohexyl)[3-(1-ethyl-1H-pyrazol-4-yl)phenyl]methyl}-2-methyl-5-(trifluoromethyl)benzamide] gave an IC50 of 610 nM.

Consider `CCn1cc(-c2cccc(C(NC(=O)c3cc(C(F)(F)F)ccc3Cl)C3(O)CCC(F)(F)CC3)c2)cn1` (stereo not shown) [Compound 180, 2-chloro-N-{(4,4-difluoro-1-hydroxycyclohexyl)[3-(1-ethyl-1H-pyrazol-4-yl)phenyl]methyl}-5-(trifluoromethyl)benzamide], for which it took 210 nM to reach half-maximal inhibition (IC50).

Turning to `CCn1cc(-c2cccc(C(NC(=O)c3cccc(C(F)(F)F)c3F)C3(O)CCC(F)(F)CC3)c2)cn1` (stereo not shown) [Compound 181, N-[(4,4-difluoro-1-hydroxycyclohexyl)[3-(1-ethyl-1H-pyrazol-4-yl)phenyl]methyl}-2-fluoro-3-(trifluoromethyl)benzamide], the midpoint of inhibition, the IC50, lay at 1500 nM.

Turning to `CCn1cc(-c2cccc(C(NC(=O)c3c(Cl)ccc(Cl)c3OC)C3(O)CCC(F)(F)CC3)c2)cn1` (stereo not shown) [Compound 182, 3,6-dichloro-N-[(4,4-difluoro-1-hydroxycyclohexyl)[3-(1-ethyl-1H-pyrazol-4-yl)phenyl]methyl}-2-methoxybenzamide], it took 580 nM to reach half-maximal inhibition (IC50).

Take `CCn1cc(-c2cccc(C(NC(=O)c3c(Cl)ccc(OC)c3F)C3(O)CCC(F)(F)CC3)c2)cn1` (stereo not shown) [Compound 183, 6-chloro-N-{(4,4-difluoro-1-hydroxycyclohexyl)[3-(1-ethyl-1H-pyrazol-4-yl)phenyl]methyl}-2-fluoro-3-methoxybenzamide]: the IC50 came to 2000 nM.

`CCn1cc(-c2cccc(C(NC(=O)c3ccc(C(F)(F)F)cc3C)C3(O)CCC(F)(F)CC3)c2)cn1` (stereo not shown) [Compound 184, N-{(4,4-difluoro-1-hydroxycyclohexyl)[3-(1-ethyl-1H-pyrazol-4-yl)phenyl]methyl}2-methyl-4-(trifluoromethyl)benzamide] showed an IC50 of 860 nM.

The compound `O=C(N[C@@H](c1cccc(Cl)c1)[C@]1(O)CC[C@@H](F)CC1)c1ccnc(C(F)(F)F)c1Cl` [Compound 186, 3-chloro-N-[(S)-(3-chlorophenyl)(cis-4-fluoro-1-hydroxycyclohexyl)methyl]-2-(trifluoromethyl)pyridine-4-carboxamide] showed an IC50 of 150 nM.

`O=C(N[C@@H](c1cccc(Cl)c1)[C@]1(O)CC[C@H](F)CC1)c1nccc(C(F)(F)F)c1Cl` [Compound 187, 3-chloro-N-[(S)-(3-chlorophenyl)(trans-4-fluoro-1-hydroxycyclohexyl)methyl]-4-(trifluoromethyl)pyridine-2-carboxamide] registered an IC50 of 210 nM.

The values are drawn from patent US20160130278A1 (TAISHO PHARMACEUTICAL CO., LTD, priority 2013, published 2016).
